ChEMBL document CHEMBL1201862, “PubChem BioAssay data set” (2004)
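In this assay, cells in 96-well plates receive the compound at five concentrations for 48 hours. Endpoints are linearly interpolated between the surrounding concentrations. GI50 = concentration required for 50% inhibition of growth.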 Activity calls are given as the source filed them. No stated cut-off is given here; in the data, active = GI50 up to about 1.1 µM and inactive = higher. Where a SMILES comes first, the peptide text is derived from it. [ ]: non-standard residue; d: D form. The star is where a group is joined. ξ: configuration not given here. NMeF = CN[CH](Cc1ccccc1)C(=O)O; ξNMe2Val = CC(C)C(C(=O)*)N(C)C; NMeV = CN[CH](C(=O)O)C(C)C; OtBu = CC(C)(C)O*

Key:
Assay in all cases: growth of human tumour cells (NCI), 48 h
A549 = test system: A549
ACHN = test system: ACHN
COLO 205 = test system: COLO 205
HCC 2998 = test system: HCC 2998
HT-29 = test system: HT-29
Malme-3M = test system: Malme-3M
NCI-H226 = test system: NCI-H226
NCI-H460 = test system: NCI-H460
OVCAR-4 = test system: OVCAR-4
RXF 393 = test system: RXF 393
SF-268 = test system: SF-268
SF-539 = test system: SF-539
SK-OV-3 = test system: SK-OV-3
SR = test system: SR
U-251 = test system: U-251
UACC-62 = test system: UACC-62
OVCAR-8 = test system: OVCAR-8

Measured: GI50

Oc1nnc(CNc2ccc(Cl)cc2Cl)c2ccccc12
inactive: A549 17.7 µM | ACHN 22.8 µM | COLO 205 45.8 µM | HCC 2998 20 µM | HT-29 31.8 µM | Malme-3M 23.6 µM | NCI-H226 36.1 µM | NCI-H460 24.6 µM | OVCAR-4 16.5 µM | RXF 393 13.9 µM | SF-268 19.9 µM | SF-539 17.1 µM | SK-OV-3 18.9 µM | SR 32.7 µM | U-251 18.2 µM | UACC-62 27.5 µM

CCOC(=O)C1(C(=O)OCC)CC=C(C)CC12C(=O)Nc1ccccc12 (stereo not drawn)
inactive: A549 > 100 µM | ACHN > 100 µM | COLO 205 > 100 µM | HCC 2998 > 100 µM | HT-29 > 100 µM | Malme-3M > 100 µM | NCI-H226 > 100 µM | NCI-H460 > 100 µM | OVCAR-4 > 100 µM | OVCAR-8 > 100 µM | SF-268 > 100 µM | SF-539 > 100 µM | SK-OV-3 > 100 µM | U-251 > 100 µM | UACC-62 > 100 µM

C[C@]12CC(C=O)C(=O)C(O)=C1CC[C@@H]1C2CC[C@@]2(C)C1CC[C@]2(C)O (stereo partly drawn)
inactive: A549 57.4 µM | ACHN 22.3 µM | COLO 205 18.8 µM | HCC 2998 10.1 µM | HT-29 4.66 µM | Malme-3M 5.06 µM | NCI-H226 18.6 µM | NCI-H460 30.3 µM | OVCAR-4 13.2 µM | OVCAR-8 28.8 µM | RXF 393 21.4 µM | SF-268 25.4 µM | SF-539 18.5 µM | SK-OV-3 21.4 µM | U-251 20.4 µM | UACC-62 13.8 µM

COC(=O)C12C3C4C1C1C2C3C41I (stereo not drawn)
inactive: A549 > 100 µM | ACHN > 100 µM | COLO 205 > 100 µM | HCC 2998 > 100 µM | HT-29 > 100 µM | Malme-3M > 100 µM | NCI-H226 > 100 µM | NCI-H460 > 100 µM | OVCAR-4 > 100 µM | OVCAR-8 > 100 µM | RXF 393 > 100 µM | SF-268 > 100 µM | SF-539 > 100 µM | SK-OV-3 > 100 µM | U-251 > 100 µM | UACC-62 > 100 µM

NC(=O)N/N=C(\CC1OC(=O)c2ccccc21)c1ccc([N+](=O)[O-])cc1 (stereo not drawn)
inactive: A549 38.7 µM | ACHN 62.1 µM | COLO 205 46.8 µM | HCC 2998 18 µM | HT-29 40.6 µM | Malme-3M 25.3 µM | NCI-H460 39.9 µM | OVCAR-4 39.5 µM | OVCAR-8 > 10 µM | RXF 393 14.9 µM | SF-539 21.5 µM | SR 32.7 µM | U-251 17.5 µM | UACC-62 18.4 µM

CC1=CC2CCC1(C)C/C2=C(/C)OC=O (stereo not drawn)
inactive: A549 > 100 µM | ACHN > 100 µM | COLO 205 > 100 µM | HT-29 > 100 µM | NCI-H226 > 100 µM | NCI-H460 > 100 µM | OVCAR-4 > 100 µM | OVCAR-8 > 100 µM | RXF 393 > 100 µM | SF-268 > 100 µM | SF-539 > 100 µM | SK-OV-3 > 100 µM | SR > 100 µM | U-251 > 100 µM | UACC-62 > 100 µM

CNC(=O)NCCN1N=C(C)/C(=C\c2ccccc2)CC1=O
inactive: A549 > 100 µM | ACHN > 100 µM | HCC 2998 > 100 µM | HT-29 > 100 µM | Malme-3M > 100 µM | NCI-H226 > 100 µM | NCI-H460 > 100 µM | OVCAR-4 > 100 µM | OVCAR-8 > 100 µM | RXF 393 > 100 µM | SF-268 > 100 µM | SF-539 > 100 µM | SK-OV-3 > 100 µM | SR > 100 µM | U-251 > 100 µM | UACC-62 > 100 µM

C1CCC(N=C2N(C3CCCCC3)C(=NC3CCCCC3)N2C2CCCCC2)CC1
inactive: A549 > 100 µM | ACHN > 100 µM | COLO 205 > 100 µM | HCC 2998 > 100 µM | HT-29 > 100 µM | Malme-3M > 100 µM | NCI-H460 > 100 µM | OVCAR-4 > 100 µM | OVCAR-8 > 100 µM | RXF 393 > 100 µM | SF-268 > 100 µM | SK-OV-3 > 100 µM | SR > 100 µM | U-251 > 100 µM | UACC-62 > 100 µM

CCn1c(=O)c2ccccc2n2c(=O)c3cc4ccccc4cc3nc12
inactive: A549 > 100 µM | ACHN > 100 µM | COLO 205 > 100 µM | HCC 2998 > 100 µM | HT-29 64.4 µM | Malme-3M > 100 µM | NCI-H226 > 100 µM | NCI-H460 > 100 µM | OVCAR-8 52.2 µM | RXF 393 15.2 µM | SF-268 65.6 µM | SF-539 62.7 µM | SK-OV-3 92.7 µM | U-251 > 100 µM | UACC-62 > 100 µM

O=c1c2ccccc2nc(-c2ccccc2)n1NCC1(O)OCC(O)C(O)C1O (stereo not drawn)
inactive: A549 81.3 µM | ACHN 95.7 µM | COLO 205 > 100 µM | HCC 2998 > 100 µM | HT-29 > 100 µM | Malme-3M > 100 µM | NCI-H226 > 100 µM | NCI-H460 30.1 µM | OVCAR-4 > 100 µM | OVCAR-8 > 100 µM | SF-268 > 100 µM | SF-539 > 100 µM | SK-OV-3 > 100 µM | U-251 87.3 µM | UACC-62 > 100 µM

CC(=O)NC1=C(NCC(C)C)C(=O)c2ccccc2C1=O
inactive: A549 54.3 µM | ACHN > 100 µM | COLO 205 > 100 µM | HCC 2998 > 100 µM | HT-29 41 µM | Malme-3M 18.9 µM | NCI-H226 16 µM | NCI-H460 34.7 µM | OVCAR-4 69.2 µM | OVCAR-8 22.1 µM | RXF 393 12.5 µM | SF-268 20.5 µM | SF-539 17.3 µM | SK-OV-3 78.2 µM | U-251 40.2 µM | UACC-62 18 µM

COC(=O)C1Cc2c(n(Cc3ccccc3)c3ccccc23)C(CCC(=O)O)N1C(C)C (stereo not drawn)
inactive: A549 > 100 µM | ACHN > 100 µM | COLO 205 > 100 µM | HCC 2998 > 100 µM | HT-29 > 100 µM | Malme-3M > 100 µM | NCI-H226 > 100 µM | NCI-H460 > 100 µM | OVCAR-4 > 100 µM | OVCAR-8 > 100 µM | SF-268 > 100 µM | SF-539 > 100 µM | SK-OV-3 > 100 µM | SR > 100 µM | U-251 > 100 µM | UACC-62 > 100 µM

O=C(Nc1c(O)[nH]c(=S)[nH]c1=O)c1ccc2ccccc2n1
inactive: A549 > 100 µM | ACHN > 100 µM | COLO 205 > 100 µM | HT-29 > 100 µM | Malme-3M > 100 µM | NCI-H226 > 100 µM | NCI-H460 > 100 µM | OVCAR-4 > 100 µM | OVCAR-8 > 100 µM | SF-268 > 100 µM | SF-539 > 100 µM | SK-OV-3 > 100 µM | SR > 100 µM | U-251 > 100 µM | UACC-62 > 100 µM

ClC1c2ccccc2C2(c3ccccc3)OOC1(c1ccccc1)O2 (stereo not drawn)
inactive: A549 1.86 µM | ACHN 1.55 µM | COLO 205 1.87 µM | HCC 2998 2.34 µM | HT-29 2 µM | Malme-3M 2.63 µM | NCI-H226 2.32 µM | NCI-H460 1.64 µM | OVCAR-4 1.48 µM | OVCAR-8 2.03 µM | RXF 393 1.4 µM | SF-268 1.97 µM | SF-539 2.31 µM | SR 1.32 µM | U-251 1.9 µM | UACC-62 1.87 µM

NCCCSCC(=O)O
inactive: A549 > 100 µM | ACHN > 100 µM | COLO 205 > 100 µM | HCC 2998 > 100 µM | HT-29 > 100 µM | Malme-3M > 100 µM | NCI-H226 > 100 µM | OVCAR-4 > 100 µM | OVCAR-8 > 100 µM | RXF 393 > 100 µM | SF-268 > 100 µM | SF-539 > 100 µM | SK-OV-3 > 100 µM | U-251 > 100 µM | UACC-62 > 100 µM

O=C1C2[C@@H](C(=O)N1c1ccc(Br)cc1)C13C(=CC2([N+](=O)[O-])[C@@H]2C(=O)N(c4ccc(Br)cc4)C(=O)[C@@H]21)c1ccccc1N3c1ccccc1 (stereo partly drawn)
inactive: A549 > 100 µM | ACHN > 100 µM | COLO 205 25.8 µM | HCC 2998 > 100 µM | Malme-3M > 100 µM | NCI-H226 > 100 µM | OVCAR-8 > 100 µM | RXF 393 > 100 µM | SF-268 11.6 µM | SF-539 > 100 µM | SR 83 µM | U-251 > 100 µM

CC[C@H]1CNC(=O)CC1CC(=O)OC (stereo partly drawn)
inactive: A549 > 100 µM | ACHN > 100 µM | HCC 2998 > 100 µM | HT-29 > 100 µM | Malme-3M > 100 µM | NCI-H226 > 100 µM | NCI-H460 > 100 µM | OVCAR-4 > 100 µM | OVCAR-8 > 100 µM | RXF 393 > 100 µM | SF-268 > 100 µM | SF-539 > 100 µM | SK-OV-3 > 100 µM | SR > 100 µM | U-251 > 100 µM | UACC-62 > 100 µM

CC(C)C(C(=O)N(C)C(Cc1ccccc1)C(=O)N(C)C(C(=O)N(C)C(C(=O)N1CCCC1C(=O)OC(C)(C)C)C(C)C)C(C)C)N(C)C (stereo not drawn) (ξNMe2Val-[NMeF][NMeV][NMeV]P-OtBu; configuration not given here)
inactive: A549 71.1 µM | ACHN 65 µM | COLO 205 35.2 µM | HCC 2998 22.8 µM | HT-29 40.4 µM | Malme-3M > 10 µM | NCI-H226 > 100 µM | NCI-H460 43.2 µM | OVCAR-8 97.3 µM | SF-268 63 µM | SF-539 26.1 µM | SR 25.4 µM | U-251 > 10 µM | UACC-62 51.9 µM
